This assay deals with 3T3L1-derived differentiated mouse adipocytes. Type of assay: cell-based. How it is done:
According to the invention 3T3L1-derived differentiated mouse adipocytes can be used as appropriate cell-system. These cells are treated with fractions of human hemofiltrate and identified using a glycerol-estimation method (GPO-Trinder reagent, Sigma, Deisenhofen, Germany) lipolytic activity. […] It was subsequently isolated in several chromatographic steps using reverse-phase and cation-exchange chromatographic material. 3T3L1 cells were obtained from ATCC. They were grown in DMEM with 10% FCS, penicillin, streptomycin, and L-glutamine for proliferation. For differentiation into the mature adipocyte phenotype, the cells were plated onto 96 well plates (Costar) and treated for three days with differentiation medium (DMEM with 10% FCS, dexamethasone, insulin, L-glutamine and 8-Br-cAMP) and subsequently for three to six days with sustainment medium (DMEM with 10% FCS and L-glutamine). Cells differentiated as described above were then treated for five hours with the hemofiltrate fractions diluted in serum-free medium. An aliquot of the cell supernatant was mixed with the glycerol-estimation-solution (GPO-Trinder Reagent, Sigma, Garching, Germany) and incubated for 15 minutes. Then the absorbance was measured at 540 nm in a 96 well plate ELISA reader (Dynex). […] The colored product is measured at 540 nm in a spectrophotometer. […]

In the case of `CSCC[C@H](NC(=O)[C@H](CCCNC(=N)N)NC(=O)[C@H](Cc1ccc(O)cc1)NC(=O)[C@@H]1CCCN1C(=O)CNC(=O)[C@H](CCC(=O)O)NC(=O)[C@H](CC(=O)O)NC(=O)[C@H](CCCCN)NC(=O)[C@H](CCCCN)NC(=O)[C@H](CCC(=O)O)NC(=O)[C@H](C)NC(=O)[C@H](C)NC(=O)[C@@H](N)C(C)C)C(=O)N[C@@H](CCC(=O)O)C(=O)N[C@@H](Cc1c[nH]cn1)C(=O)N[C@@H](Cc1ccccc1)C(=O)N[C@@H](CCCNC(=N)N)C(=O)N[C@@H](Cc1c[nH]c2ccccc12)C(=O)NCC(=O)N[C@@H](CO)C(=O)N1CCC[C@H]1C(=O)N1CCC[C@H]1C(=O)N[C@@H](CCCCN)C(=O)N[C@@H](CC(=O)O)C(=O)O` [vaaekkdegp yrmehfrwgs ppkd], the EC50 (in general, the concentration at which the effect is half-maximal) is roughly 20 nM.
For `CSCC[C@H](NC(=O)[C@H](CCCNC(=N)N)NC(=O)[C@H](Cc1ccc(O)cc1)NC(=O)[C@@H]1CCCN1C(=O)CNC(=O)[C@H](CCC(=O)O)NC(=O)[C@H](CC(=O)O)NC(=O)[C@H](CCCCN)NC(=O)[C@H](CCCCN)NC(=O)[C@H](CCC(=O)O)NC(=O)[C@H](C)N)C(=O)N[C@@H](CCC(=O)O)C(=O)N[C@@H](Cc1c[nH]cn1)C(=O)N[C@@H](Cc1ccccc1)C(=O)N[C@@H](CCCNC(=N)N)C(=O)N[C@@H](Cc1c[nH]c2ccccc12)C(=O)NCC(=O)N[C@@H](CO)C(=O)N1CCC[C@H]1C(=O)N1CCC[C@H]1C(=O)N[C@@H](CCCCN)C(=O)N[C@@H](CC(=O)O)C(=O)O` [β-MSH, aekkdegp yrmehfrwgs ppkd], the EC50 is roughly 20 nM.

The values are drawn from patent publication EP1529535A1, “Isolation of a circulating human lipolytic peptide” (IPF PharmaCeuticals GmbH, priority 2003, dated 2005).
